Test results published in patent publication US20060247220A1, “Preventing the crystallization of cholesterol using oxysterols” (priority 2003, published 2006).

What was measured:
[1] = Crystallization of cholesterol from solution in sunflower seed oil at room temperature; type: physicochemical
Experimental: Cholesterol was partially oxidized by heating in an oven with air at 80° C.
A 140 mg portion of the partially oxidized cholesterol was placed in a glass tube and 2.6 mL sunflower seed oil was added. The same amount of oil was added to tubes containing 60, 80, 100, 120 and 140 mg of pure cholesterol. All the tubes were held in a heating block at 95° C. until the sterols were dissolved. They were then held at room temperature (about 24° C.) for at least 3 weeks.
To determine the maximum solubilizing effect of the oxysterols, 35 mg and 70 mg of pure cholesterol were added to tubes containing 140 mg of the partially oxidized cholesterol, and 2.6 mL oil was added to each tube. The mixtures were brought into solution as described above, and held at room temperature.

[2] = system: rabbits; conditions: fed in diet; cited from earlier work
[3] = system: rabbits; conditions: in the diet, hydroperoxides added to cholesterol; cited from earlier work
[4] = system: rabbits; conditions: fed in diet; cited from earlier work; remark: listed apart in the source

- crystallization on standing ([1]; 60 mg pure cholesterol in 2.6 mL sunflower seed oil, room temperature): crystallization did not occur
- time to complete crystallization ([1]; 80, 100, 120 and 140 mg pure cholesterol in 2.6 mL sunflower seed oil, room temperature (about 24° C.)): about 1 hour
SMILES: CC(C)CCC[C@@H](C)[C@H]1CC[C@H]2[C@@H]3CC=C4C[C@@H](O)CC[C@]4(C)[C@H]3CC[C@]12C [pure cholesterol, cholesterol]
- atherogenicity [2]: much more atherogenic to rabbits than oxysterols or a mixture of cholesterol and oxysterols
- atheroma / lesion formation in the aortas [3]: extensive atheroma formation
- atherosclerotic lesions [4]: both elevated serum cholesterol and lesions
